The target in this experiment is T1, Rex (Staphylococcus aureus, UniProt P60386).
T1 sequence (P60386 1-211): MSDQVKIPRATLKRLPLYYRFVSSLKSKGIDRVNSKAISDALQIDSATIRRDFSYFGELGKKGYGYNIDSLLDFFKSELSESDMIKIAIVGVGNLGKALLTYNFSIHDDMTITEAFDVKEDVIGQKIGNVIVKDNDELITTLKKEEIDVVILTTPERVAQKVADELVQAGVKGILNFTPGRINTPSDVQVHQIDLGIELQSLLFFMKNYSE
Briefly: isothermal titration calorimetry. Format: binding. A general note: In ITC the heat of successive injections is recorded.

Broadly, the Kd is a measure of binding affinity in units of concentration. Low values mean a tighter complex, high ones a looser complex.

`NC(=O)c1ccc[n+]([C@@H]2O[C@H](COP(=O)(O)OP(=O)(O)OC[C@H]3O[C@@H](n4cnc5c(N)ncnc54)[C@H](O)[C@@H]3O)[C@@H](O)[C@H]2O)c1` [NAD^+] came in with a Kd of 150 ± 20 µM. The same measure for `NC(=O)C1=CN([C@@H]2O[C@H](COP(=O)(O)OP(=O)(O)OC[C@H]3O[C@@H](n4cnc5c(N)ncnc54)[C@H](O)[C@@H]3O)[C@@H](O)[C@H]2O)C=CC1` [NADH]: 0.095 ± 0.005 µM.
